Reference: patent US11395857B2, “Radiolabeled melanocortin 1 receptor-specific alpha-melanocyte-stimulating hormone analogues for imaging or therapy” (PROVINCIAL HEALTH SERVICES AUTHORITY, priority 2018, dated 2022)

Experiments:
SK-MEL-1 human melanoma [1] = experiment: Radioligand therapy of SK-MEL-1 human melanoma-bearing mice; format: in vivo, NRG mice; settings: radiotherapy group, 26.7±3.6 MBq/mouse
Procedure: For radioligand therapy, SK-MEL-1 human melanoma-bearing mice were injected with saline (control group, n=5), non-radioactive lutetium coupled CCZ01158 (cold std, n=4), and [^177Lu]Lu-CCZ01158 (26.7±3.6 MBq/mouse, n=4). Tumour size and body weight were measured every 2-4 days from the date of injection. Endpoint was defined as >15% weight loss, ulceration of tumours, or tumour volume >1000 mm^3 (Volume=width×width×length/2, measured with calliper). […] This confirms the effectiveness of the ^177Lu radiotherapy with CCZ01158 as the melanoma targeting molecule. […] All mice were euthanized when the tumours reached over 1000 mm^3, except for one mouse due to weight loss in the saline group, and one mouse due to tumour ulceration in the cold std group.

in vivo = settings: male, NRG (NOD.Cg-Rag1tm1Mom Il2rgtm1Wjl/SzJ), mouse, total radioactivity
Procedure: (§1) The SK-MEL-1 human melanoma cell line (HTB-67) was obtained commercially from ATCC. SK-MEL-1 cells were cultured in Eagle's Minimum Essential Medium (StemCell Technologies) under the same conditions as described in Example 1. Immunodeficient NOD.Cg-Rag1tm1Mom I12rgtm1Wjl/SzJ (NRG) male mice were obtained from an in-house breeding colony at the BC Cancer Research Centre. For tumor implantation, male NRG mice were anesthetized by inhalation with 2% isoflurane, and 5 million SK-MEL-1 cells were inoculated subcutaneously on the right dorsal flank. Mice were used for imaging or biodistribution studies when the tumors reached 6-8 mm in diameter in 16-20 days.
(§2) Biodistribution studies were performed as described in Example 3.

[2] = Biodistribution of 177Lu-labeled αMSH analogues in mice bearing SK-MEL-1 human melanoma; settings: male, mouse, total radioactivity
Procedure: as §1, §2

SK-MEL-1 human melanoma [3] = experiment: as above; settings: compared to the other two analogues
Procedure: as §1, §2

[4] = NRG (NOD.Cg-Rag1tm1Mom I12rgtm1Wjl/SzJ), fat, iv
[5] = NRG (NOD.Cg-Rag1tm1Mom I12rgtm1Wjl/SzJ), seminal glands, iv
[6] = NRG (NOD.Cg-Rag1tm1Mom Il2rgtm1Wjl/SzJ), SK-MEL-1 tumour
[7] = NRG (NOD.Cg-Rag1tm1Mom Il2rgtm1Wjl/SzJ), adrenal glands
[8] = NRG (NOD.Cg-Rag1tm1Mom Il2rgtm1Wjl/SzJ), blood
[9] = NRG (NOD.Cg-Rag1tm1Mom Il2rgtm1Wjl/SzJ), bone
[10] = NRG (NOD.Cg-Rag1tm1Mom Il2rgtm1Wjl/SzJ), brain
[11] = NRG (NOD.Cg-Rag1tm1Mom Il2rgtm1Wjl/SzJ), heart
[12] = NRG (NOD.Cg-Rag1tm1Mom Il2rgtm1Wjl/SzJ), intestine
[13] = NRG (NOD.Cg-Rag1tm1Mom Il2rgtm1Wjl/SzJ), kidneys
[14] = NRG (NOD.Cg-Rag1tm1Mom Il2rgtm1Wjl/SzJ), liver
[15] = NRG (NOD.Cg-Rag1tm1Mom Il2rgtm1Wjl/SzJ), lungs
[16] = NRG (NOD.Cg-Rag1tm1Mom Il2rgtm1Wjl/SzJ), muscle
[17] = NRG (NOD.Cg-Rag1tm1Mom Il2rgtm1Wjl/SzJ), pancreas
[18] = NRG (NOD.Cg-Rag1tm1Mom Il2rgtm1Wjl/SzJ), spleen
[19] = NRG (NOD.Cg-Rag1tm1Mom Il2rgtm1Wjl/SzJ), stomach
[20] = NRG (NOD.Cg-Rag1tm1Mom Il2rgtm1Wjl/SzJ), testes
[21] = NRG (NOD.Cg-Rag1tm1Mom Il2rgtm1Wjl/SzJ), thyroid
[22] = NRG (NOD.Cg-Rag1tm1Mom Il2rgtm1Wjl/SzJ), urine

With `CCCC[C@H](NC(=O)CN1CCC(NC(=O)[C@H](CCCCNC(=O)CN2CCN(CC(=O)O)CCN(CC(=O)O)CCN(CC(=O)O)CC2)NC(=O)CNC(=O)CCCc2ccc(-c3ccc(C)cc3)cc2)CC1)C(=O)N[C@H]1CC(=O)NCCCC[C@@H](C(N)=O)N(C)C(=O)[C@H](Cc2c[nH]c3ccccc23)NC(=O)[C@H](CCCNC(=N)N)N(C)C(=O)[C@@H](Cc2ccccc2)NC(=O)[C@H](Cc2c[nH]cn2)NC1=O` [^177Lu-labeled CCZ01158, metal not drawn] the Adverse effects (SK-MEL-1 human melanoma [1]) was “No obvious adverse effects were observed”, the tissue to tissue ratio at 1 h (in vivo; Tumour/blood) was 0.69 ± 0.08 and the tissue to tissue ratio at 4 h (in vivo; Tumour/blood) was 2.24 ± 0.36. It also gave a tissue to tissue ratio at 24 h (in vivo; Tumour/blood) of 62.8 ± 26.4, a tissue to tissue ratio at 120 h (in vivo; Tumour/blood) of 436 ± 64.7 and a tissue to tissue ratio at 1 h (in vivo; Tumour/muscle) of 7.99 ± 1.03. The tissue to tissue ratio at 4 h (in vivo; Tumour/muscle) was 23.6 ± 4.32, the tissue to tissue ratio at 24 h (in vivo; Tumour/muscle) was 245 ± 48 and the tissue to tissue ratio at 120 h (in vivo; Tumour/muscle) was 394 ± 42.9. It also gave a tissue uptake at 1 h [2, 4] of 2.24 ± 0.49 %ID/g, a tissue uptake at 4 h [2, 4] of 1.85 ± 0.53 %ID/g and a tissue uptake at 24 h [2, 4] of 0.3 ± 0.07 %ID/g. The tissue uptake at 120 h [2, 4] was 0.2 ± 0.08 %ID/g, the tissue uptake at 1 h [2, 5] was 1.8 ± 0.79 %ID/g and the tissue uptake at 4 h [2, 5] was 0.79 ± 0.13 %ID/g. It also gave a tissue uptake at 24 h [2, 5] of 0.15 ± 0.07 %ID/g, a tissue uptake at 120 h [2, 5] of 0.11 ± 0.06 %ID/g and a tissue uptake at 1 h [2, 6] of 13.3 ± 2.94 %ID/g. The tissue uptake at 4 h [2, 6] was 24.3 ± 5.04 %ID/g, the tissue uptake at 24 h [2, 6] was 29.7 ± 4.29 %ID/g and the tissue uptake at 120 h [2, 6] was 19.3 ± 7.95 %ID/g. For the same molecule, the tissue uptake at 1 h [2, 7] was 5.1 ± 1.69 %ID/g, the tissue uptake at 4 h [2, 7] was 3.54 ± 1.01 %ID/g and the tissue uptake at 24 h [2, 7] was 1.68 ± 0.93 %ID/g. The tissue uptake at 120 h [2, 7] was 1.36 ± 1.56 %ID/g, the tissue uptake at 1 h [2, 8] was 19.1 ± 3.57 %ID/g and the tissue uptake at 4 h [2, 8] was 10.8 ± 0.87 %ID/g. It also gave a tissue uptake at 24 h [2, 8] of 0.54 ± 0.24 %ID/g, a tissue uptake at 120 h [2, 8] of 0.04 ± 0.01 %ID/g and a tissue uptake at 1 h [2, 9] of 1.36 ± 0.32 %ID/g. The tissue uptake at 4 h [2, 9] was 0.8 ± 0.24 %ID/g, the tissue uptake at 24 h [2, 9] was 0.24 ± 0.15 %ID/g and the tissue uptake at 120 h [2, 9] was 0.23 ± 0.09 %ID/g. For the same molecule, the tissue uptake at 1 h [2, 10] was 0.33 ± 0.1 %ID/g, the tissue uptake at 4 h [2, 10] was 0.2 ± 0.01 %ID/g and the tissue uptake at 24 h [2, 10] was 0.04 ± 0.02 %ID/g. For the same molecule, the tissue uptake at 120 h [2, 10] was 0.03 ± 0.02 %ID/g, the tissue uptake at 1 h [2, 11] was 4.7 ± 0.7 %ID/g and the tissue uptake at 4 h [2, 11] was 2.84 ± 0.4 %ID/g. For the same molecule, the tissue uptake at 24 h [2, 11] was 0.5 ± 0.2 %ID/g, the tissue uptake at 120 h [2, 11] was 0.3 ± 0.13 %ID/g and the tissue uptake at 1 h [2, 12] was 2.07 ± 0.42 %ID/g. For the same molecule, the tissue uptake at 4 h [2, 12] was 1.32 ± 0.2 %ID/g, the tissue uptake at 24 h [2, 12] was 0.51 ± 0.52 %ID/g and the tissue uptake at 120 h [2, 12] was 0.28 ± 0.11 %ID/g. For the same molecule, the tissue uptake at 1 h [2, 13] was 11.3 ± 2.81 %ID/g, the tissue uptake at 4 h [2, 13] was 11.3 ± 1.38 %ID/g and the tissue uptake at 24 h [2, 13] was 8.29 ± 1.94 %ID/g. It also gave a tissue uptake at 120 h [2, 13] of 3.26 ± 1.6 %ID/g, a tissue uptake at 1 h [2, 14] of 7.24 ± 2.38 %ID/g and a tissue uptake at 4 h [2, 14] of 6.37 ± 1.33 %ID/g. It also gave a tissue uptake at 24 h [2, 14] of 4.45 ± 2.6 %ID/g, a tissue uptake at 120 h [2, 14] of 3.85 ± 1.63 %ID/g and a tissue uptake at 1 h [2, 15] of 11.2 ± 2.91 %ID/g. The tissue uptake at 4 h [2, 15] was 6.81 ± 1.45 %ID/g, the tissue uptake at 24 h [2, 15] was 1.55 ± 1.22 %ID/g and the tissue uptake at 120 h [2, 15] was 2.15 ± 2.57 %ID/g. The tissue uptake at 1 h [2, 16] was 1.67 ± 0.35 %ID/g, the tissue uptake at 4 h [2, 16] was 1.03 ± 0.06 %ID/g and the tissue uptake at 24 h [2, 16] was 0.13 ± 0.04 %ID/g. The tissue uptake at 120 h [2, 16] was 0.05 ± 0.02 %ID/g, the tissue uptake at 1 h [2, 17] was 1.87 ± 0.3 %ID/g and the tissue uptake at 4 h [2, 17] was 1.22 ± 0.08 %ID/g. It also gave a tissue uptake at 24 h [2, 17] of 0.27 ± 0.13 %ID/g, a tissue uptake at 120 h [2, 17] of 0.16 ± 0.07 %ID/g and a tissue uptake at 1 h [2, 18] of 3.9 ± 1.66 %ID/g. For the same molecule, the tissue uptake at 4 h [2, 18] was 2.5 ± 0.5 %ID/g, the tissue uptake at 24 h [2, 18] was 1.89 ± 0.85 %ID/g and the tissue uptake at 120 h [2, 18] was 4.6 ± 3.88 %ID/g. The tissue uptake at 1 h [2, 19] was 0.85 ± 0.29 %ID/g, the tissue uptake at 4 h [2, 19] was 0.66 ± 0.12 %ID/g and the tissue uptake at 24 h [2, 19] was 1.07 ± 1.42 %ID/g. For the same molecule, the tissue uptake at 120 h [2, 19] was 1.24 ± 0.65 %ID/g, the tissue uptake at 1 h [2, 20] was 2.99 ± 0.56 %ID/g and the tissue uptake at 4 h [2, 20] was 2.8 ± 0.12 %ID/g. For the same molecule, the tissue uptake at 24 h [2, 20] was 0.92 ± 0.26 %ID/g, the tissue uptake at 120 h [2, 20] was 0.56 ± 0.25 %ID/g and the tissue uptake at 1 h [2, 21] was 5.57 ± 0.79 %ID/g. For the same molecule, the tissue uptake at 4 h [2, 21] was 5.74 ± 0.74 %ID/g, the tissue uptake at 24 h [2, 21] was 5.04 ± 1.22 %ID/g and the tissue uptake at 120 h [2, 21] was 5.4 ± 2.58 %ID/g. For the same molecule, the tissue to tissue ratio at 1 h ([2]; NRG (NOD.Cg-Rag1tm1Mom Il2rgtm1Wjl/SzJ), tumour/kidney, 1 h p.i., NRG mice, SK-MEL-1 melanoma) was 1.18 ± 0.11, the tissue to tissue ratio at 4 h ([2]; NRG (NOD.Cg-Rag1tm1Mom Il2rgtm1Wjl/SzJ), tumour/kidney, 4 h p.i., NRG mice, SK-MEL-1 melanoma) was 2.14 ± 0.26 and the tissue to tissue ratio at 24 h ([2]; NRG (NOD.Cg-Rag1tm1Mom Il2rgtm1Wjl/SzJ), tumour/kidney, 24 h p.i., NRG mice, SK-MEL-1 melanoma) was 3.68 ± 0.6. The tissue to tissue ratio at 120 h ([2]; NRG (NOD.Cg-Rag1tm1Mom Il2rgtm1Wjl/SzJ), tumour/kidney, 120 h p.i., NRG mice, SK-MEL-1 melanoma) was 6.17 ± 1.09, the excreta dose per gram or mL at 1 h [2, 22] was 214 ± 57.6 %ID/g and the excreta dose per gram or mL at 4 h [2, 22] was 258 ± 66.2 %ID/g. For the same molecule, the excreta dose per gram or mL at 24 h [2, 22] was 21.8 ± 4.6 %ID/g, the excreta dose per gram or mL at 120 h [2, 22] was 3.56 ± 1.16 %ID/g and the “Overall comparison of tumour uptake and tumour to background contrast” value (SK-MEL-1 human melanoma [3]) was “superior due to high and sustained tumour uptake, as well as superior tumour to background contrast”.
